Laboratory results taken from ChEMBL document CHEMBL1201862, “PubChem BioAssay data set” (2004).
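Briefly, cells in 96-well plates were exposed to five compound concentrations for 48 h, and endpoints were estimated by linear interpolation. GI50 = concentration required for 50% inhibition of growth.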 Calls of active or inactive are those of the source. Cut-off read from the data, not from the text of the source: active = GI50 up to about 1.1 µM and inactive = higher.

Legend:
Experiment in all cases: NCI-60 cell line screen, 48 h
[1] = tested on: SK-MEL-28
[2] = tested on: HCT-116
[3] = tested on: PC-3
[4] = tested on: MDA-N
[5] = tested on: IGROV-1
[6] = tested on: RPMI-8226
[7] = tested on: HOP-62
[8] = tested on: SN12C
[9] = tested on: OVCAR-3
[10] = tested on: NCI-H226
[11] = tested on: Hs-578T
[12] = tested on: OVCAR-8
[13] = tested on: COLO 205
[14] = tested on: A498
[15] = tested on: T47D
[16] = tested on: SF-295
[17] = tested on: OVCAR-4
[18] = tested on: OVCAR-5
[19] = tested on: MDA-MB-435
[20] = tested on: HCC 2998

Measured: GI50

NC(Cc1ccccc1)C(=O)NC(Cc1ccccc1)NC(=O)C(Cc1c[nH]c2ccccc12)C(=O)O (stereo unspecified)
inactive: [1] > 100 µM | [2] > 100 µM | [3] > 100 µM | [4] > 100 µM | [5] > 100 µM | [6] > 100 µM | [7] > 100 µM | [8] > 100 µM | [9] > 100 µM | [10] > 100 µM | [11] 37.7 µM | [12] > 100 µM | [13] > 100 µM | [14] > 100 µM | [15] > 100 µM | [16] > 100 µM | [17] > 100 µM | [18] > 100 µM | [19] > 100 µM | [20] > 100 µM

O=Cc1ccc2c(c1)CC1(Cc3ccccc3C1)C2
inactive: [2] > 100 µM | [3] 25.9 µM | [4] 18.7 µM | [5] 20.5 µM | [6] 24.8 µM | [7] 16.1 µM | [8] 18.1 µM | [9] 14.3 µM | [10] 22.5 µM | [11] 3.72 µM | [12] 19.3 µM | [13] 21.8 µM | [14] 30.3 µM | [15] 25.9 µM | [16] 31.3 µM | [17] 17.6 µM | [18] > 100 µM | [19] 16.7 µM | [20] 59 µM

Cc1ccc(NC(=O)c2cc(S(=O)(=O)Nc3n[nH]c(=O)n3-c3ccccc3)c(S)cc2Cl)cc1
inactive: [1] > 100 µM | [2] > 100 µM | [3] > 100 µM | [4] > 100 µM | [5] > 100 µM | [6] > 100 µM | [8] > 100 µM | [9] > 100 µM | [10] > 100 µM | [11] > 100 µM | [12] > 100 µM | [13] > 100 µM | [14] > 100 µM | [15] > 100 µM | [17] > 100 µM | [18] > 100 µM | [19] > 100 µM | [20] > 100 µM

Nc1nc(Cl)cc(NCC2(CO)CC(CCCc3ccccc3)C2)n1 (stereo unspecified)
inactive: [1] > 100 µM | [3] > 81.3 µM | [4] > 100 µM | [5] > 72.8 µM | [6] > 100 µM | [7] > 100 µM | [8] > 36.6 µM | [9] > 100 µM | [10] > 100 µM | [11] > 64.4 µM | [12] > 72.1 µM | [13] > 100 µM | [14] > 63.1 µM | [15] 2.31 µM | [16] > 33.2 µM | [17] > 100 µM | [18] > 100 µM | [19] > 100 µM | [20] > 100 µM

O=C1c2cccc(O)c2C(=O)c2c(OC3OC(CO)C(O)C(O)C3O)cccc21 (stereo unspecified)
inactive: [1] > 100 µM | [2] 19.8 µM | [3] 24.5 µM | [4] 28.6 µM | [5] 39.2 µM | [6] 23.9 µM | [7] 46.3 µM | [8] 24.7 µM | [9] 31.4 µM | [10] > 100 µM | [11] 17.8 µM | [12] 31.8 µM | [13] 19.4 µM | [14] > 100 µM | [15] 20.4 µM | [16] 48.5 µM | [17] 16.1 µM | [18] 51.6 µM | [19] 18.2 µM | [20] 24.8 µM
